# Test results: US20260306460A1, “COMPOSITION FOR REMOVING AND INHIBITING SENESCENT CELLS, AND USES THEREOF” (LIFECEUTIX CO., LTD., priority 2023, published 2026)
# Tests used:
# [1] = system: proliferating foreskin cells; assay: Survival of proliferating human cells treated with supernatant (secreted fluid) from death-induced cells, Example 13; format: cell-based; settings: 3 days; for viability at 30 µM: Homo sapiens, 72 h
# Procedure: After 3 days, cell viability was measured using CellTiter-Glo Luminescent Cell Viability Assay (Promega) or light microscopy.
# After treating cells with the test compound at a high concentration that induces the death of most cells in both non-senescence-induced and senescence-induced cells, the cells were washed three times with PBS to remove the test compound, and replaced with fresh medium and cultured for an additional 3 hours at the time when the compound has entered into the cell but has not yet induced cell death (approximately 1 to 3 hours after compound treatment). During this additional culture, by checking with an optical microscope, etc., the medium supernatants containing secreted fluid from normally proliferating and senescent cells in which cell death was induced were obtained. The obtained medium supernatant was replaced with the medium of normally proliferating and senescent cells, respectively, and cell survival rate was measured after 3 days.
# proliferating A549 cells = assay: Survival of proliferating A549 cells treated with supernatant from death-induced cancer cells, Example 14; format: cell-based, human; settings: for viability at 30 µM: Homo sapiens
# Procedure: In the same way as Examples 12 and 13, senescence of cancer (A549) cells was induced by treatment with doxorubicin or the control group (DMSO), and the cells were cultured. The cells were treated with LX-405 at a concentration of 30 μM. 3 days later, cell viability was measured using CellTiter-Glo Luminescent Cell Viability Assay (Promega) or an optical microscope. In the same manner as in Example 13, the medium supernatants comprising secreted fluid from normally proliferating and senescent cancer cells was obtained. Normally proliferating and senescent-induced cancer cells were treated with the medium supernatants.
# [2] = system: obesity-induced aged C57BL6J mice; assay: Open field test in obese aged mice given senescent cells killed by test compound, Example 16; format: in vivo, mouse; settings: senescent preadipocytes killed by test compound sc; no administration = 100%
# [3] = system: doxorubicin-induced aged C57BL6J mice; assay: p16 and p21 mRNA in doxorubicin-aged mice, Example 22-2, Table 31; format: in vivo, mouse; settings: untreated aged = 100%
# Procedure: (§1) Eight-week-old male C57BL6J mice (KRIBB Laboratory Animal Resource Center) were acclimated to the experimental environment for one week. Afterwards, the anticancer agent doxorubicin was administered intraperitoneally at a concentration of 10 mg/kg, inducing aging for more than 10 days. The aging-induced mice were randomly assigned to experimental and control groups. LX-403 was mixed with a 10% ethanol solution of PEG400 and administered orally at a concentration of 25 mg/kg or intradermally at a concentration of 1 μM for 21 days. LX-1801 was mixed in distilled water with 4% DMSO, 30% PEG300, and 5% Tween80 and administered intradermally at a concentration of 0.4 μM daily for 21 days. LX-2001 was mixed in PBS and administered intradermally at a concentration of 2 μM daily for 21 days. LX-2002 was mixed in distilled water with 4% DMSO, 30% PEG300, and 5% Tween80 and administered intradermally at a concentration of 2 μM daily for 21 days. […] LX-2005 was mixed in distilled water with 4% DMSO, 30% PEG300, and 5% Tween80 and administered intradermally at a concentration of 90 μM daily for 21 days. LX-2007 was mixed in distilled water with 4% DMSO, 30% PEG300, and 5% Tween80 and administered intradermally at a concentration of 90 μM daily for 21 days. […] LX-3002 was mixed in distilled water with 4% DMSO, 30% PEG300, and 5% Tween80 and administered orally at a concentration of 10 mg/kg daily for 21 days. […] LX-5411 was mixed in 5% phosphate-buffered saline (PBS) and administered orally at a concentration of 10 mg/kg daily for 21 days or intradermally at a concentration of 3 μM. LX-5701 was mixed in PBS and administered orally at a concentration of 360 mg/kg daily for 21 days. LX-6807 was mixed in saline and administered intraperitoneally at a concentration of 1 mg/kg daily for 21 days. The control group received only the solution in the same volume. After the end of drug administration, the methods described in each example below were performed.
# Mice were sacrificed using the same method as in Example 7-2 of WO2023-085787 A1. RNA was extracted from organ tissues of each site, and cDNA synthesized was used for qRT-PCR and analysis. […] The mRNA amounts of p16 and p21 after aging induction were calculated as 100% and compared with the mRNA amounts of p16 and p21 after LX-5701 treatment.
# [4] = system: doxorubicin-induced aged C57BL6J mice; assay: SA-β-gal staining in doxorubicin-aged mice, Example 22-3, Table 32; format: in vivo, mouse; settings: staining area, untreated aged = 100
# Procedure: as §1
# Mice were sacrificed as described in Example 7-3 of WO2023-085787 A1, and tissue sections were prepared from each organ tissue site and stained for the aging-related marker SA-β-gal.
# [5] = system: doxorubicin-induced aged C57BL6J mice; assay: Lipofuscin staining in muscle of doxorubicin-aged mice, Example 22-4, Table 33; format: in vivo, mouse; settings: staining area, untreated aged = 100
# Procedure: Eight-week-old male C57BL6J mice (KRIBB Laboratory Animal Resource Center) were acclimated to the experimental environment for one week. Afterwards, the anticancer agent doxorubicin was administered intraperitoneally at a concentration of 10 mg/kg, inducing aging for more than 10 days. The aging-induced mice were randomly assigned to experimental and control groups. LX-403 was mixed with a 10% ethanol solution of PEG400 and administered orally at a concentration of 25 mg/kg or intradermally at a concentration of 1 μM for 21 days. LX-1801 was mixed in distilled water with 4% DMSO, 30% PEG300, and 5% Tween80 and administered intradermally at a concentration of 0.4 μM daily for 21 days. LX-2001 was mixed in PBS and administered intradermally at a concentration of 2 μM daily for 21 days. LX-2002 was mixed in distilled water with 4% DMSO, 30% PEG300, and 5% Tween80 and administered intradermally at a concentration of 2 μM daily for 21 days. […] LX-2005 was mixed in distilled water with 4% DMSO, 30% PEG300, and 5% Tween80 and administered intradermally at a concentration of 90 μM daily for 21 days. LX-2007 was mixed in distilled water with 4% DMSO, 30% PEG300, and 5% Tween80 and administered intradermally at a concentration of 90 μM daily for 21 days. […]
# [6] = system: obesity-induced aged C57BL6J mice; assay: Serum IL6 and activin A (ELISA) in obesity-aged mice, Example 23-3, Table 43; format: in vivo, mouse; settings: 360 mg/kg oral daily for 21 days
# Procedure: 15-week-old male C57BL6J mice (The Jackson Laboratory) were induced to obesity by a high-fat diet using the same method as in Example 9-1 WO2023-085787 A1. After acclimation to the experimental environment for one week, the mice were randomly assigned to experimental and control groups. […] LX-3002 was mixed in distilled water with 4% DMSO, 30% PEG300, and 5% Tween80 and administered orally at a concentration of 10 mg/kg daily for 21 days. LX-5701 was mixed in PBS and administered orally at a concentration of 360 mg/kg daily for 21 days. LX-6807 was mixed in saline and administered intraperitoneally at a concentration of 1 mg/kg daily for 21 days. The control group received only the solution in the same volume. After the end of drug administration, the methods described in each example below were performed.
# The levels of IL6 and activin A, senescence-associated secretory factors (SASP), were measured in serum collected from mice using the same method as in Example 7-5 of WO2023-085787 A1 using an enzyme-linked immunosorbent assay (ELISA Kit, R&D Systems).
compound,measurement,setting,value
COC(=O)c1ccc([C@H]2c3[nH]c4ccccc4c3C[C@H](C(=O)OC)N2C(=O)CCl)cc1 [LX-405],viability at 30 µM,[1]; supernatant from death-induced proliferating cells,104%
same,viability at 30 µM,[1]; supernatant from death-induced senescent cells,100%
same,Survival,[1]; supernatant from No Cells,99.4 (±2.4) %
same,Survival,"proliferating A549 cells; A549, supernatant from No Cells",101.4 (±1.3) %
same,viability at 30 µM,"proliferating A549 cells; A549, A549, supernatant from death-induced proliferating cells",98.6%
same,viability at 30 µM,"proliferating A549 cells; A549, A549, supernatant from death-induced senescent cells",105%
S=C(N/N=C1\CCCc2cccnc21)N1CCN(c2ccccn2)CC1 [LX-801],Open Field Test Time in Center,[2],216.8 (±12.8) %
O=C1C2CCN(CC2)C1CNC(=O)C(F)(F)F (centres unmarked) [LX-5701],"p16 mRNA (%), Kidney",[3]; Kidney,78 (±7.7) %
same,"p21 mRNA (%), Kidney",[3]; Kidney,75 (±5.8) %
same,"p16 mRNA (%), Liver",[3]; Liver,62 (±7.5) %
same,"p21 mRNA (%), Liver",[3]; Liver,64 (±11.7) %
same,"p16 mRNA (%), eWAT",[3]; eWAT,55 (±11.5) %
same,"p21 mRNA (%), eWAT",[3]; eWAT,71 (±8.8) %
same,"SA-β-gal (%), Kidney",[4]; Kidney,64 (±9.7) %
same,"SA-β-gal (%), Liver",[4]; Liver,43 (±14.2) %
same,"SA-β-gal (%), Lung",[4]; Lung,68 (±14.8) %
same,"SA-β-gal (%), eWAT",[4]; eWAT,66 (±10.5) %
same,"Lipofuscin (%), Muscle",[5],64 (±13.1) %
same,Activin A,[6]; untreated 100 (±7.5),61.7 (±14.0) %
same,IL6,[6]; untreated 100 (±11.6),53.9 (±15.4) %
